From paper PMC5206724, “Insensitivity to pain induced by a potent selective closed-state Nav1.7 inhibitor” (Scientific Reports, 2017)
Read-outs that look alike come from different tables or passages of the source.

Key:
[1] = for mentation BAR (bright, alert and responsive) / normal corneal reflex / normal pinna reflex / normal placing stepping / scratching: 1.4 mg/100 μl perineural
Excerpt: Rats ~250–300 g were placed under Isoflurane anesthesia (4% for induction, 2% for maintenance). A single hip and proximal hind-leg area were shaved and the injection area prepped with alternating applications of chlorhexidine 2% soln. and isopropyl alcohol 70%. A pelvic notch just distal to the greater trochanter was located with palpation and a starter hole was made through the dermis using a 20G hypodermic needle. A 22G nerve stimulating injection needle (ProBloc II, cat#HN3S-40, Halyard Health) connected to a peripheral nerve stimulation device (EZstim II model ES400, Life-Tech, Inc.) was placed into the starter hole. The nerve stimulator was set to 0.7 mA and the injection needle was gently advanced in a line parallel to the femur until localized dorsal or plantar flexion of the foot was observed. Generalized muscle twitching involving primary twitching on the quadriceps muscle was considered a negative response and the needle was carefully re-positioned until the appropriate localized foot flicking was observed. […] The device was increased back to 0.2 mA and if twitching was still observed, the 100 μL injection was given.

hNav1.1 [2] = molecular target: T1, hNav1.1 (Homo sapiens, UniProt P35498); assay: cell-based; details: QPatch; read-out: Fitted Emax hNav1.1
hNav1.6 [3] = molecular target: T2, hNav1.6 (Homo sapiens, UniProt Q9UQD0); assay: cell-based; details: QPatch; read-out: Fitted Emax hNav1.6
T2 sequence (Q9UQD0 whole entry): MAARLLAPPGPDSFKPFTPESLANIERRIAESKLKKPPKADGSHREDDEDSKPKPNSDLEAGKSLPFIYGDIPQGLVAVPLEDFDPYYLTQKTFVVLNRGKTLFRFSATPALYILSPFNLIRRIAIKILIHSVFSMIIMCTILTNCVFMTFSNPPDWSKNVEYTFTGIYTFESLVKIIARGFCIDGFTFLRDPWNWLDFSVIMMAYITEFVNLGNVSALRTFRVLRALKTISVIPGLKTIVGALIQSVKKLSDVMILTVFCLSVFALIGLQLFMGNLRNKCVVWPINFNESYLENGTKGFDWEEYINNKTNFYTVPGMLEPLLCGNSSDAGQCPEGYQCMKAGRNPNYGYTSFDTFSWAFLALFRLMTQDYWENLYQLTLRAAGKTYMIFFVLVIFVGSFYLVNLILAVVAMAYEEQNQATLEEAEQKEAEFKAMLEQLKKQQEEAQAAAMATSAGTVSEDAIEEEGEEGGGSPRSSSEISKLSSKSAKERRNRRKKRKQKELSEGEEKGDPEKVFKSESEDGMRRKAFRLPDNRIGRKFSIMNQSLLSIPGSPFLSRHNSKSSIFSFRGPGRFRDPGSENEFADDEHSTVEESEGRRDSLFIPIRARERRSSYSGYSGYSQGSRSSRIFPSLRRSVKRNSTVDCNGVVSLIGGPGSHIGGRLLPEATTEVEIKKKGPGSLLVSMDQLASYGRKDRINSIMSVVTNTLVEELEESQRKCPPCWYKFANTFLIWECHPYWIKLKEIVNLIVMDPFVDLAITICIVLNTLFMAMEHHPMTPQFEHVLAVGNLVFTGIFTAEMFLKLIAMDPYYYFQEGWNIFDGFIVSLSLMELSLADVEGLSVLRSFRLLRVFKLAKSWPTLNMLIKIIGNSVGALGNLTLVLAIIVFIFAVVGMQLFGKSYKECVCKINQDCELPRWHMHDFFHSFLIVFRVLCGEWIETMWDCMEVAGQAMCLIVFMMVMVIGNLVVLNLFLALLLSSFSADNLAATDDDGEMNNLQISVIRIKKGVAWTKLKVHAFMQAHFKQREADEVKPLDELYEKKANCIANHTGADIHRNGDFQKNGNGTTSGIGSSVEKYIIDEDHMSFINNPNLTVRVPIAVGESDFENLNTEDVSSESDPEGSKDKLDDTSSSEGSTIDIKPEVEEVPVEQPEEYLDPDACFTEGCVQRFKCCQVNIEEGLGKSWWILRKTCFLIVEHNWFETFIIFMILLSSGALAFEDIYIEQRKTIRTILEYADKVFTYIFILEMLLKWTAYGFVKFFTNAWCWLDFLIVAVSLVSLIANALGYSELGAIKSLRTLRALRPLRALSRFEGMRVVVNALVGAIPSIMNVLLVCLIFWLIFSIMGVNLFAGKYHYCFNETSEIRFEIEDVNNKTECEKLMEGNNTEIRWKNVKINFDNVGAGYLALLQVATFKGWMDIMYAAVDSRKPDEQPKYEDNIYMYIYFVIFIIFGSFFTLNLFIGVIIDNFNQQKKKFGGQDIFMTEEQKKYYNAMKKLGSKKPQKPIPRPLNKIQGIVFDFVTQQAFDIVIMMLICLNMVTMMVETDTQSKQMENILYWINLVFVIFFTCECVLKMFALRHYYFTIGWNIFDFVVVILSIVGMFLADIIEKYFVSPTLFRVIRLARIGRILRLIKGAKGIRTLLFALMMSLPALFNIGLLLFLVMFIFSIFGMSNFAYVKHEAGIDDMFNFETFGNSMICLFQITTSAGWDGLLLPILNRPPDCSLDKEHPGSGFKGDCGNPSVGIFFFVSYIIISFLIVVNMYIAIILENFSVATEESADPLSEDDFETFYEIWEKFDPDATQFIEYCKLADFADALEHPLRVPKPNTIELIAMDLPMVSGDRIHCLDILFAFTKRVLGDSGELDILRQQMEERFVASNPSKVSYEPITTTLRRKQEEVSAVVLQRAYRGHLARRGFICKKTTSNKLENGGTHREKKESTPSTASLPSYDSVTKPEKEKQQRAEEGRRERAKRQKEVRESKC

hNav1.7 [4] = molecular target: T3, hNav1.7 (Homo sapiens, UniProt Q15858); assay: cell-based; details: manual patch clamp; read-out: Fitted Emax hNav1.7
T3 construct: host or cells: HEK293

hNav1.1 [5] = molecular target: T1, hNav1.1; assay: cell-based; details: manual patch clamp
hNav1.4 [6] = molecular target: T4, hNav1.4 (Homo sapiens, UniProt P35499); assay: cell-based; details: manual patch clamp; read-out: Fitted Emax hNav1.4
hNav1.7 [7] = molecular target: T3, hNav1.7; assay: cell-based; details: QPatch; read-out: Fitted Emax hNav1.7
[8] = 0.5 μg/h IT infusion; in words
Method: Efficacy was assessed in the hotplate and tail flick tests at various time points before pump implantation, during infusion and after discharge of the pumps.
All peptides were formulated in DPBS (no Ca^2+ and Mg^2+) and stored at 4 °C until use. For bolus administration, 10 μl of compound solution or vehicle were injected via the IT catheter followed by 10 μl saline flush. […] The osmotic pump was implanted subcutaneously above the scapula. Animals were excluded from behavioral studies if any motor dysfunction was noted following IT injection, if baseline thresholds were >90% or <10% of the cut-off value in the tail flick, hotplate and Hargreaves test, if there was significant leak (>20 μl) while injecting formalin into the paw or any malfunction of the metal bands or formalin apparatus. Intrathecal compound was administered 15 min–1 h before commencing behavioral testing. Intrathecal-cannulated rats were trained on the behavioral apparatus for at least two days before baseline withdrawal latencies were taken. All behavioral tests were conducted by an investigator blinded to group and treatment.

hNav1.2 [9] = molecular target: T5, hNav1.2 (Homo sapiens, UniProt Q99250); assay: cell-based; details: manual patch clamp; read-out: Fitted Emax hNav1.2
T5 sequence (Q99250 whole entry): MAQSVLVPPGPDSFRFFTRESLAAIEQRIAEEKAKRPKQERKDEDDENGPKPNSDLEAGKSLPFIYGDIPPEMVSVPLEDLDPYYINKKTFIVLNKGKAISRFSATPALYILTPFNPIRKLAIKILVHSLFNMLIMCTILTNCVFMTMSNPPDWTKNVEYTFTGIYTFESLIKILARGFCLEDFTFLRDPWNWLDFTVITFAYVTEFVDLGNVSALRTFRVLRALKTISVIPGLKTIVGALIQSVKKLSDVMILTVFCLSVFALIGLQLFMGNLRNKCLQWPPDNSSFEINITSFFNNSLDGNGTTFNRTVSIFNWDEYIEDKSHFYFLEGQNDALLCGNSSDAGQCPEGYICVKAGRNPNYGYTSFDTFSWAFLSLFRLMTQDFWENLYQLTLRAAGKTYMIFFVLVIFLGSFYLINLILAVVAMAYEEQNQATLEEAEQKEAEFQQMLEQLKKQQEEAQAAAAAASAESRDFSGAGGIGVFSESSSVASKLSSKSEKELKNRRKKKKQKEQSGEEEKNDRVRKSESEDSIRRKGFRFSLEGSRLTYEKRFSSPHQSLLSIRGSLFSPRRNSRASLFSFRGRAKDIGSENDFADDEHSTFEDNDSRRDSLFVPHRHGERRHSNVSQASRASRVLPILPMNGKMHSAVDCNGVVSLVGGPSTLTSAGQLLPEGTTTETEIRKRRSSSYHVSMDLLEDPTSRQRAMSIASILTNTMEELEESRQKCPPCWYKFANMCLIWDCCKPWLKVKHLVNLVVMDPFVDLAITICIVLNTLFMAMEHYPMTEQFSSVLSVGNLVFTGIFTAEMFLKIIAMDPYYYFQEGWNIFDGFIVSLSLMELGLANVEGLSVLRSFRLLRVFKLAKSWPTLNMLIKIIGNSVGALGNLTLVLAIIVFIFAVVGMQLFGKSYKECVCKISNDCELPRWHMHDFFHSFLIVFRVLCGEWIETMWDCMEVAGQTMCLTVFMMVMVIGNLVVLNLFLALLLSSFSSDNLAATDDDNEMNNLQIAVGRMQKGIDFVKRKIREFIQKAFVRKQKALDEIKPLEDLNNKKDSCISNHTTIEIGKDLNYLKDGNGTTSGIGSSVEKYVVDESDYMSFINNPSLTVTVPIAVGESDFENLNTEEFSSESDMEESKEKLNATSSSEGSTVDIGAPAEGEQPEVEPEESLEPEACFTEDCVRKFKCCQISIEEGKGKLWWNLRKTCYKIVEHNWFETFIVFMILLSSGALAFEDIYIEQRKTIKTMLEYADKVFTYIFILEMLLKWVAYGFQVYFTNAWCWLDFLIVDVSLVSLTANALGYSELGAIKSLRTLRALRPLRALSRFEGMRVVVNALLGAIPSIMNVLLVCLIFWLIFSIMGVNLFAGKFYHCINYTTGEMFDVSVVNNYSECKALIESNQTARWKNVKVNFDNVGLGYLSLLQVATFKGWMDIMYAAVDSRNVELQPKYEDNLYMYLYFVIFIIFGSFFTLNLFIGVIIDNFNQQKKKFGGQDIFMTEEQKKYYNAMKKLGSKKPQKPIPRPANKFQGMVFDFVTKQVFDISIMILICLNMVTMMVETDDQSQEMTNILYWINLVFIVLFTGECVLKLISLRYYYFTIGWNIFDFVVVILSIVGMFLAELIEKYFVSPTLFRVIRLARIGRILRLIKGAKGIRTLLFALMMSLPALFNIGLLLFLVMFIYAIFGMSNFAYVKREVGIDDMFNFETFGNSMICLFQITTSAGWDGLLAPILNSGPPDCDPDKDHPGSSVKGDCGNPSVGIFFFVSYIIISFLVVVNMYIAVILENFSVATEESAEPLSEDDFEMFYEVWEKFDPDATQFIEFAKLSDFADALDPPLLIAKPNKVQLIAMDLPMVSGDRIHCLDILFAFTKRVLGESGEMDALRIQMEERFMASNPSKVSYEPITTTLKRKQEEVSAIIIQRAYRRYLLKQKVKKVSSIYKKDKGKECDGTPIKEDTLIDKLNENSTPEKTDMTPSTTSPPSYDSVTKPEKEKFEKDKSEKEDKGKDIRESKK

hNav1.4 [10] = molecular target: T4, hNav1.4; assay: cell-based; details: QPatch; read-out: Fitted Emax hNav1.4
hNav1.2 [11] = molecular target: T5, hNav1.2; assay: cell-based; details: QPatch; read-out: Fitted Emax hNav1.2
hNav1.6 [12] = molecular target: T2, hNav1.6; assay: cell-based; details: manual patch clamp
[13] = 0.5 μg/10 μl IT, 2 h post dose (1 h post formalin)
[14] = 2.5 μg/10 μl IT, 2 h post dose (1 h post formalin)
[15] = 2.5 μg/10 μl IT, first 2 animals not assessed

Question: Which “scratching / behavioral abnormalities” value ([1]; 1.4 mg/100 μl peri-sciatic, in words) does the source give for `CSCC[C@@H]1NC(=O)CNC(=O)[C@H](CCC(=O)O)NC(=O)[C@@H]2CSSC[C@H](NC(=O)[C@H](Cc3ccc(O)cc3)NC(=O)[C@@H]3CCCN3C(=O)CN)C(=O)N[C@@H](CCC(N)=O)C(=O)N[C@@H](CCCCN)C(=O)N[C@@H](Cc3c[nH]c4ccccc34)C(=O)N[C@@H](CCSC)C(=O)N[C@@H](CCC(N)=O)C(=O)N[C@@H]([C@@H](C)O)C(=O)N[C@H]3CSSC[C@H](NC(=O)[C@H](C(C)C)NC1=O)C(=O)N[C@@H](CCCNC(=N)N)C(=O)N[C@@H](CC(C)C)C(=O)N[C@@H](Cc1c[nH]c4ccccc14)C(=O)N[C@H](C(=O)N[C@@H](CCCCN)C(=O)N[C@@H](CCCCN)C(=O)N[C@@H](CCCCN)C(=O)N[C@@H](CC(C)C)C(=O)N[C@@H](CC(C)C)C(=O)O)CSSC[C@H](NC(=O)[C@H](CCCCN)NC(=O)[C@H](CCCNC(=N)N)NC(=O)[C@H](CCC(=O)O)NC(=O)[C@H](CO)NC(=O)[C@H](CC(=O)O)NC3=O)C(=O)N2` [JNJ63955918] here?
Answer: Scratching was observed in some animals but no other behavioral abnormalities were noted

Question: What about the “mentation BAR (bright, alert and responsive)” value (shortened to “mentation BAR”) ([1]; 15 min post dose) of the same compound?
Answer: 7/9

Question: What about the normal corneal reflex ([1]; 15 min post dose) of the same compound?
Answer: 9/9

Question: What about the normal pinna reflex ([1]; 15 min post dose) of the same compound?
Answer: 9/9

Question: And the normal placing stepping ([1]; 15 min post dose)?
Answer: 9/9

Question: And the scratching ([1]; 15 min post dose)?
Answer: 0/9

Question: What about the “mentation BAR” value ([1]; 30 min post dose) of the same compound?
Answer: 4/9

Question: What about the normal corneal reflex ([1]; 30 min post dose) of the same compound?
Answer: 9/9

Question: What about the normal pinna reflex ([1]; 30 min post dose) of the same compound?
Answer: 9/9

Question: And the normal placing stepping ([1]; 30 min post dose)?
Answer: 9/9

Question: And the scratching ([1]; 30 min post dose)?
Answer: 1/9

Question: What about the “mentation BAR” value ([1]; 60 min post dose) of the same compound?
Answer: 5/9

Question: What about the normal corneal reflex ([1]; 60 min post dose) of the same compound?
Answer: 9/9

Question: What about the normal pinna reflex ([1]; 60 min post dose) of the same compound?
Answer: 9/9

Question: What about the normal placing stepping ([1]; 60 min post dose) of the same compound?
Answer: 9/9

Question: And the scratching ([1]; 60 min post dose)?
Answer: 2/9

Question: What about the “mentation BAR” value ([1]; 120 min post dose) of the same compound?
Answer: 6/9

Question: What about the normal corneal reflex ([1]; 120 min post dose) of the same compound?
Answer: 9/9

Question: What about the normal pinna reflex ([1]; 120 min post dose) of the same compound?
Answer: 9/9

Question: And the normal placing stepping ([1]; 120 min post dose)?
Answer: 9/9

Question: What about the scratching ([1]; 120 min post dose) of the same compound?
Answer: 2/9

Question: And the “mentation BAR” value ([1]; 240 min post dose)?
Answer: 8/9

Question: What about the normal corneal reflex ([1]; 240 min post dose) of the same compound?
Answer: 9/9

Question: What about the normal pinna reflex ([1]; 240 min post dose) of the same compound?
Answer: 9/9

Question: What about the normal placing stepping ([1]; 240 min post dose) of the same compound?
Answer: 9/9

Question: What about the scratching ([1]; 240 min post dose) of the same compound?
Answer: 1/9

Question: And the “mentation BAR” value ([1]; 24 h post dose)?
Answer: 9/9

Question: What about the normal corneal reflex ([1]; 24 h post dose) of the same compound?
Answer: 9/9

Question: What about the normal pinna reflex ([1]; 24 h post dose) of the same compound?
Answer: 9/9

Question: And the normal placing stepping ([1]; 24 h post dose)?
Answer: 9/9

Question: And the gross motor deficits ([1]; 2.5 mg/100 μl peri-sciatic, in words)?
Answer: absence of any gross motor deficits

Question: And the “tolerability, peri-sciatic” value ([1]; up to 2.5 mg/100 μl, in words)?
Answer: well tolerated

Question: And the Emax (hNav1.1 [2])?
Answer: 100%

Question: What about the Emax (hNav1.6 [3]) of the same compound?
Answer: 100%

Question: What about the Emax (hNav1.7 [4]) of the same compound?
Answer: 94.8 ± 3.3%

Question: What about the IC50 (hNav1.1 [5]; holding −120 mV, test −10 mV, 0.1% BSA, 22–24 °C, read-out: pIC50 hNav1.1 (converted)) of the same compound?
Answer: 10 µM

Question: What about the Emax (hNav1.1 [5]; read-out: Fitted Emax hNav1.1) of the same compound?
Answer: 100%

Question: What about the Emax (hNav1.4 [6]) of the same compound?
Answer: 100%

Question: What about the gross motor normal (0.5 μg/10 μl IT, 1 h post dose) of the same compound?
Answer: 6/6

Question: And the normal proprioception (0.5 μg/10 μl IT, 1 h post dose)?
Answer: 6/6

Question: And the gross motor normal [13]?
Answer: 6/6

Question: And the normal proprioception [13]?
Answer: 6/6

Question: And the abrasions at euthanasia (0.5 μg/10 μl IT, first 2 animals not assessed)?
Answer: 0/4

Question: What about the gross motor normal (2.5 μg/10 μl IT, 1 h post dose) of the same compound?
Answer: 6/6

Question: What about the normal proprioception (2.5 μg/10 μl IT, 1 h post dose) of the same compound?
Answer: 6/6

Question: And the gross motor normal [14]?
Answer: 6/6

Question: And the normal proprioception [14]?
Answer: 6/6

Question: What about the “excessive scratching leading to upper body skin abrasion (animals affected)” value (2.5 μg/10 μl IT, blinded repeat study) of the same compound?
Answer: 2 of 4

Question: And the abrasions at euthanasia [15]?
Answer: 2/4

Question: And the scratching [15]?
Answer: 2/4

Question: And the “duration of muscle weakness” value (7.5 μg/10 μl IT)?
Answer: < 1 h

Question: What about the “incidence of mild reversible muscle weakness” value (7.5 μg/10 μl IT) of the same compound?
Answer: approximately 50%

Question: What about the scabbing (IT dose range finding, in words) of the same compound?
Answer: Scabbing on face/neck/shoulders was observed in some rats

Question: What about the motor impairment (IT doses above 7.5 μg/10 μl, in words) of the same compound?
Answer: Dose related motor impairment became more obvious and the duration of the effects was longer

Question: And the tolerability (IT doses up to 5 μg/10 μl, in words)?
Answer: well tolerated with no detectable abnormal behaviors

Question: What about the in-vivo safety window (rat, in vivo) of the same compound?
Answer: 7–16 fold

Question: And the “therapeutic margin vs ziconotide” value (rat, in vivo)?
Answer: greater than that of ziconotide

Question: And the “maximum tolerated dose (MTD), IT” value (rat, intrathecal)?
Answer: 5 μg/10 μl

Question: And the “lesions to the face and shoulders” value (rats, in words)?
Answer: often noticed

Question: And the Emax (hNav1.7 [7])?
Answer: 79.1 ± 3.4%

Question: And the “body weight gain vs vehicle” value [8]?
Answer: gained weight at the same rate

Question: What about the “motor or other behavioral abnormalities” value [8] of the same compound?
Answer: No motor or other behavioral abnormalities were observed

Question: What about the scabbing [8] of the same compound?
Answer: Some scabbing on the face, shoulders, hind limbs and tail

Question: What about the Emax (hNav1.2 [9]) of the same compound?
Answer: 50 ± 18.5%

Question: And the Emax (hNav1.4 [10])?
Answer: 100%

Question: What about the Emax (hNav1.2 [11]) of the same compound?
Answer: 27.6 ± 7.3%

Question: What about the IC50 (hNav1.6 [12]; holding −120 mV, test −10 mV, 0.1% BSA, 22–24 °C, read-out: pIC50 hNav1.6 (converted)) of the same compound?
Answer: 1 µM

Question: What about the Emax (hNav1.6 [12]; read-out: Fitted Emax hNav1.6) of the same compound?
Answer: 100%
